Each structure is given as a SMILES string.

A short description of this data set: gradient 5% acetonitrile 3 min, to 50% in 2 min, to 85% in 15 min, held 3 min, 100 µL/min. To be noted: column: Zorbax Extend-C18 2.1 x 50 mm; eluents: water / acetonitrile, 0.1% formic acid. In short, it runs like this: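 Retention times of pure standards were taken from adduct peaks that were selected by computer and manually inspected. Over 3 months, mixtures of ~100 molecules were run by HPLC–quadrupole time-of-flight mass spectrometry in positive and negative ionization mode. The Zorbax Extend-C18 column (2.1 × 50 mm, 1.8 μm) ran at 100 μL/min in water and acetonitrile, each containing 0.1% formic acid, with 40 μL dead volume and 900 μL dwell volume.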
Consider `CCCS(=O)(=O)NCc1ccc2c(c1)CCN2C(=O)c1ccccc1`, for which the RP-LC retention time was determined as 810 s.
Take `Cc1nc(OCC(=O)NCc2ccc(Cl)cc2)c2c(C)c(C)oc2n1`: the RP-LC retention time was 941 s.
`COc1ccc(-n2ncc3c(=O)n(Cc4nc(-c5ccc(Br)cc5)no4)cnc32)cc1` returned an RP-LC retention time of 1090 s.
In the case of `Cc1cc(Cl)ccc1NC(=O)N(C)CC1CCOC1` (stereo not drawn) it was 756 s; in that of `Cc1ccc(NC(=O)CN2C(=O)CCS(=O)(=O)c3ccccc32)c(C)c1`, 768 s.
For the molecule `COc1ccc(OC)c(S(=O)(=O)NCc2ccc3c(c2)CCN3C(C)=O)c1`, the RP-LC retention time was 719 s.
`CC(CNC(=O)C1CCN(S(=O)(=O)c2ccc3c(c2)CCCC(=O)N3)CC1)c1ccccc1` (stereo not drawn) came in with an RP-LC retention time of 766 s.
In the case of `COc1ccc(-c2nnc(-c3ccccc3)o2)cc1S(=O)(=O)Nc1cccnc1` it was 725 s; in that of `CCn1cnnc1C1CCCCN1S(=O)(=O)c1ccccc1F` (stereo not drawn), 706 s.
The same measure for `Cc1oc(-c2ccc(NC(=O)C3CCCO3)cc2)nc1Cn1cccn1` (stereo not drawn): 774 s; for `Cc1ccc(S(=O)(=O)N(C)CC2CCOCC2)cc1F`: 850 s; for `CCNc1cc(N2CCC(CCC(=O)NCc3ccc(F)cc3Cl)CC2)ncn1`: 680 s.
The same measure for `O=c1n(Cc2ccc(F)cc2Cl)nc2ccc(S(=O)(=O)N3CCOCC3)cn12`: 863 s; for `Cc1ccccc1-c1nnc(CSc2nnc(NC(=O)c3ccccc3C(F)(F)F)s2)o1`: 972 s.
`CC(NC(=O)CN1C(=O)C2CCCCN2c2ccc(S(=O)(=O)N3CCCC3)cc21)c1ccccc1` (stereo not drawn) registered an RP-LC retention time of 956 s.
The same measure for `COCCN1C(=O)Cc2ccccc2C1C(=O)NCc1ccccc1F` (stereo not drawn): 732 s; for `Cc1ccc(CNC(=O)C2CCCN(c3cc(=O)n(C)c(=O)n3C)C2)cc1` (stereo not drawn): 701 s; for `CN1CCN(c2c(F)cc(C(=O)Nc3nc(-c4ccccc4)cs3)c(F)c2F)CC1`: 750 s.
In the case of `COc1cc(F)ccc1-c1ccnc2nc(C(C)C)nn12` it was 842 s.
The same measure for `O=C(Cc1ccsc1)N1CCC[C@H]1c1nc(-c2ccccc2)n[nH]1`: 718 s; for `O=C(c1nnc(-c2ccc(S(=O)(=O)N3CCOCC3)cc2)o1)N1CCOCC1`: 689 s.
In turn, `Cc1nn(CC(=O)N(C)Cc2ccco2)c(=O)c2c(C)n(-c3ccccc3)nc12` had an RP-LC retention time of 820 s.
The same measure for `Cc1cc(NC(=O)Cn2nc(C(=O)N3CCOCC3)c3ccccc32)ccc1Br`: 862 s.
The same measure for `COC(=O)c1cc(OC)c(OC)cc1NC(=O)c1c(C)coc1C`: 940 s; for `CCN(Cc1ccc(C)cc1)Cc1cc(=O)n2ccc(C)cc2n1`: 628 s.
In the case of `Cc1ccc(N2CC(c3nc(-c4cccc(-c5ccnn5C)c4)no3)CC2=O)cc1` (stereo not drawn) it was 605 s; in that of `COc1ccc(-n2ccc(=O)c(-c3nc(-c4ccccc4)no3)n2)cc1`, 856 s; in that of `CCCNS(=O)(=O)c1ccc(-c2cc(C(F)(F)F)on2)o1`, 1010 s.
`Cc1[nH]nc(-c2c(C)sc(C)c2S(=O)(=O)Nc2cccc(Br)c2)c1C` came in with an RP-LC retention time of 1130 s.
Take `Cc1ccccc1Cn1nc2ccc(S(=O)(=O)N3CCCC3)cn2c1=O`: the RP-LC retention time is 891 s.
In the case of `NC(=O)C1CCC(=O)N1C1CCN(C(=O)CCC2CCCC2)CC1` (stereo not drawn) it was 566 s; in that of `CCOC(=O)c1c(S(=O)(=O)N2CCC(C(=O)Nc3ccc(OC)cc3)CC2)c(C)n(CC)c1C`, 857 s.
In the case of `CCC(=O)NCCc1csc(C2CCCN(C(=O)CC)C2)n1` (stereo not drawn) it was 591 s.

Values taken from the METLIN SMRT retention time set (Domingo-Almenara et al. 2019).
